Test results taken from PMC10945555, “Improving Activity of New Arylurea Agents against Multidrug-Resistant and Biofilm-Producing Staphylococcus epidermidis” (ACS Medicinal Chemistry Letters, 2024).
Values after ≈ are worked out from the molar mass of the structure shown.

Key:
[1] = tested on: biofilm-producing Staphylococcus epidermidis strains; test: Inhibition of biofilm formation (MBIC, resazurin); assay type: cell-based
Protocol: After 24 hours incubation each well of
concentration of 4 mg/mL was added. […]

[2] = tested on: Staphylococcus epidermidis ATCC 35984; test: MIC, broth microdilution, MDR/BPSE reference strain; assay type: cell-based
From the text: (§1) These strains included susceptible, multidrug-resistant, and biofilm-producing strains of S. epidermidis and S. aureus (MSSE, MDR/BPSE, and MDR/BPSA, respectively). The cornerstone antibiotic linezolid served as a positive control (Table 1). The impact of structural modifications at the aryloxy fragment and the aromatic moiety bound to the propyl linker on the inhibitory activity was initially investigated. […] Further optimization focused on evaluating the impact of the type of substituent and its position on the arylsulfonamide fragment’s activity.
(§2) 2 Biological assay protocols
(§3) Microbiological tests were carried out under aseptic conditions in a laminar chamber of the 2nd […]
(§4) (BioTectum 1.2, Alchem Poland). The assessment of antimicrobial activity was carried out for final compounds in the form of free bases, soluble in DMSO (Merck, Germany), at the initial […]
(§5) concentration of 1 mg/mL. […]
(§6) were provided by Cayman Chemical, USA.
(§7) The activity of all newly synthesized compounds was tested in vitro on a panel of selected reference strains from the American Type Culture Collection (ATCC) of Gram-positive […]
(§8) 2.2 Effect of evaluated compounds on planktonic cells
(§9) The susceptibility of three reference bacterial strains (Staphylococcus epidermidis ATCC […]
(§10) Table S1) and 81 clinical MDR S. epidermidis (Table S2) to the tested compounds was assessed by determining the MIC value (Minimal Inhibitory Concentration) by microdilution in a liquid medium in 96-well flat-bottom cell culture plates (Nest Biotechnology Scientific, USA). The antibacterial properties of the compo unds were tested in the concentration range from 50 µg/mL to 0.1 µg/mL by making a series of double dilutions of the compound in liquid Mueller -Hinton II Broth Cation Adjusted (MHB II, BBL TM, USA) according to the European Committee on […]
(§11) Antimicrobial Susceptibility Testing guidelines (EUCAST).2,3 The determinations were performed twice. The MIC50 and MIC90 values were determined for each of the tested

H9c2 cells = test: Cytotoxicity, MTT assay, cardiomyocytes; assay type: cell-based; conditions: Rattus norvegicus, 24 h, n = 3
Protocol: (§12) The following cell models were used in the research: rat cardiomyocytes (H9c2 line) and human skin fibroblasts (BJ line). All cell lines used in the work are commercially available and were purchased from ATCC banks (the American Type Culture Collection, Manassas, VI, USA). Cell cultures were carried out in an incubator under standard conditions (37°C, 5% CO 2).
(§13) Culture media (Dulbecco's Modified Eagle's Medium -DMEM (H9c2) and Eagle's Minimum Essential Medium-EMEM (BJ) were supplemented with 10% bovine serum and a 1% mixture of penicillin and streptomycin antibiotics. […]
(§14) doxorubicin (a cytotoxic drug) were used as reference and positive control, respectively. […]
(§15) incubated with studied compound in appropriate concentration for next 24 h. Then MTT solution (5 mg/mL) was transferred into culture medium of incubated cells. After 3 h, once dark crystals of formazan were produced in cells, medium was aspirated and 100 μ L of DMSO was added to dissolve formazan. Absorbance of DMSO solution was read on a multiwell plate reader (Spectra Max iD3, Molecular Devices) at 570 nm. In order to determine viability, absorbance of experimental wells was divided by absorbance of contro l well (not treated) and multiplied by 100 (%). Three separate experiments were performed. IC 50 was calculated using non-linear regression method in OriginPro software. […]

BJ cells = test: Cytotoxicity, MTT assay, skin fibroblasts; assay type: cell-based, human; conditions: Homo sapiens, MTT, 24 h, n = 3
Protocol: as §12, §13, §14
as §15, with “solution” for “incubated with studied compound in appropriate concentration for next 24 h. Then MTT solution”

[3] = tested on: Staphylococcus epidermidis ATCC 12228; test: MIC, broth microdilution, MSSE reference strain; assay type: cell-based; conditions: ATCC12228, Staphylococcus epidermidis ATCC 12228, read-out: MIC MSSE
From the text: as §1, §2, §3, §4, §5, §6, §7, §8, §9, §10, §11

`O=S(=O)(NC1CCN(CCC(Oc2ccc(C(F)(F)F)cc2)c2ccccc2)CC1)c1cccc(Cl)c1` (centres unmarked) [Compound 12] gave an MBIC ([1]; S. epidermidis ATCC 35984 (Table S4)) of 31.25 µg/mL, an MBIC50 ([1]; Table S4 strains) of 125 µg/mL and an MBIC ([1]; clinical strain 1 (Table S4)) of 125 µg/mL. It also gave an MBIC ([1]; clinical strain 2 (Table S4)) of 125 µg/mL, an MBIC ([1]; clinical strain 3 (Table S4)) of 125 µg/mL and an MBIC ([1]; clinical strain 4 (Table S4)) of 125 µg/mL. It also gave an MBIC ([1]; clinical strain 5 (Table S4)) of 62.5 µg/mL, an MBIC ([1]; clinical strain 6 (Table S4)) of 125 µg/mL and an MBIC ([1]; clinical strain 7 (Table S4)) of 125 µg/mL. The MBIC ([1]; clinical strain 8 (Table S4)) was 15.6 µg/mL, the MBIC ([1]; clinical strain 9 (Table S4)) was 125 µg/mL and the MBIC ([1]; clinical strain 11 (Table S4)) was 125 µg/mL. For the same molecule, the MBIC ([1]; clinical strain 12 (Table S4)) was 125 µg/mL, the MBIC ([1]; clinical strain 13 (Table S4)) was 62.5 µg/mL and the MBIC ([1]; clinical strain 15 (Table S4)) was 125 µg/mL. For the same molecule, the MBIC ([1]; clinical strain 16 (Table S4)) was 62.5 µg/mL, the MBIC ([1]; clinical strain 17 (Table S4)) was 62.5 µg/mL and the MBIC ([1]; clinical strain 19 (Table S4)) was 31.25 µg/mL. For the same molecule, the MBIC ([1]; clinical strain 21 (Table S4)) was 125 µg/mL, the MBIC ([1]; clinical strain 22 (Table S4)) was 125 µg/mL and the MBIC ([1]; clinical strain 23 (Table S4)) was 31.25 µg/mL. It also gave an MBIC ([1]; clinical strain 25 (Table S4, Figure 2)) of 31.25 µg/mL, an MBIC ([1]; clinical strain 26 (Table S4)) of 125 µg/mL and an MBIC ([1]; clinical strain 27 (Table S4)) of 250 µg/mL. It also gave an MBIC ([1]; clinical strain 28 (Table S4)) of 62.5 µg/mL, an MBIC ([1]; clinical strain 29 (Table S4)) of 62.5 µg/mL and an MBIC ([1]; clinical strain 30 (Table S4)) of 62.5 µg/mL. The MBIC ([1]; clinical strain 33 (Table S4)) was 125 µg/mL, the MBIC ([1]; clinical strain 35 (Table S4)) was 125 µg/mL and the MBIC ([1]; clinical strain 36 (Table S4)) was 62.5 µg/mL. It also gave an MBIC ([1]; clinical strain 37 (Table S4)) of 125 µg/mL, an MBIC ([1]; clinical strain 39 (Table S4)) of 31.25 µg/mL and an MBIC ([1]; clinical strain 40 (Table S4)) of 125 µg/mL. It also gave an MBIC ([1]; clinical strain 41 (Table S4)) of 125 µg/mL, an MBIC ([1]; clinical strain 42 (Table S4)) of 125 µg/mL and an MBIC ([1]; clinical strain 43 (Table S4)) of 250 µg/mL. The MBIC ([1]; clinical strain 44 (Table S4)) was 31.25 µg/mL, the MBIC ([1]; clinical strain 45 (Table S4)) was 125 µg/mL and the MBIC ([1]; clinical strain 46 (Table S4)) was 125 µg/mL. For the same molecule, the MBIC ([1]; clinical strain 47 (Table S4)) was 62.5 µg/mL, the MBIC ([1]; clinical strain 49 (Table S4)) was 31.25 µg/mL and the MBIC ([1]; clinical strain 51 (Table S4)) was 125 µg/mL. The MBIC ([1]; clinical strain 55 (Table S4)) was 125 µg/mL, the MBIC ([1]; clinical strain 58 (Table S4)) was 125 µg/mL and the MBIC ([1]; clinical strain 59 (Table S4)) was 125 µg/mL. The MBIC ([1]; clinical strain 65 (Table S4)) was 125 µg/mL, the MBIC ([1]; clinical strain 66 (Table S4)) was 125 µg/mL and the MBIC ([1]; clinical strain 67 (Table S4)) was 125 µg/mL. It also gave an MBIC ([1]; clinical strain 70 (Table S4)) of 125 µg/mL, an MBIC ([1]; clinical strain 73 (Table S4)) of 31.25 µg/mL and an MBIC ([1]; clinical strain 74 (Table S4)) of 125 µg/mL. The MBIC ([1]; clinical strain 75 (Table S4)) was 31.25 µg/mL, the MBIC ([1]; clinical strain 78 (Table S4)) was 31.25 µg/mL and the MBIC ([1]; clinical strain 79 (Table S4)) was 31.25 µg/mL. For the same molecule, the “increase of activity against MDR/BPSE compared to hit I” value [2] was “up to 8 fold”, the MIC ([2]; Staphylococcus epidermidis, ATCC35984, read-out: MIC MDR/BPSE, Staphylococcus epidermidis ATCC 35984) was at most 0.8 µg/mL and the IC50 (H9c2 cells) was 14.2 µg/mL (≈ 25.7 µM). It also gave an IC50 (BJ cells) of 7.4 µg/mL (≈ 13.4 µM) and an MIC [3] of at most 6.25 µg/mL.
